Where two headings read alike, the source gives them in different places.
Columns and labels:
[1] = biological target: T1, CYP2D6 (Homo sapiens, UniProt P10635); assay: Direct inhibition (DI) of CYP2D6 in human liver microsomes; assay type: in vitro ADME; details: probe Dextromethorphan, human liver microsomes 0.2 mg/mL, 10 μM compound, read-out: Direct inhibition (DI) 2D6 (Dextromethorphan)
T1 construct: A system of 100 μL human liver microsomes; from tissue; host or cells: human liver microsomes
T1 sequence (P10635 whole entry): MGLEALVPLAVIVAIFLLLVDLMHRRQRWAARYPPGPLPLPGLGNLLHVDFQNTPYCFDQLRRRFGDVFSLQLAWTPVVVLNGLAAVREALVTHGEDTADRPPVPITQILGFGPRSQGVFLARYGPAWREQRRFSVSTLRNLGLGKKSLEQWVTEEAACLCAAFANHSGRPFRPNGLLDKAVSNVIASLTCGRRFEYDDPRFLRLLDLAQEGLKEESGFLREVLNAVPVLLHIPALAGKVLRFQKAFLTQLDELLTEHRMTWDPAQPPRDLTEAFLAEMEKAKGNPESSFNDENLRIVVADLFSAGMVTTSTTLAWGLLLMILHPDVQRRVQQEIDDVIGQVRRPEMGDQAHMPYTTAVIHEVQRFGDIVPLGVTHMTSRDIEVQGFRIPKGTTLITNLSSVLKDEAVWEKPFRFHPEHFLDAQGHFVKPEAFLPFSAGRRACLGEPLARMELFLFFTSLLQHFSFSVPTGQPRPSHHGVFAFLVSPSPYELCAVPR
Summary of the method: (§1)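 Pooled human liver microsomes (0.2 mg/mL) with 1 mM NADPH and 10 μM test compound were incubated for 20 min with a mixed probe-substrate cocktail (midazolam 10 μM, testosterone 100 μM, dextromethorphan 10 μM, diclofenac 20 μM, phenacetin 100 μM, mephenytoin 100 μM). Relative enzyme activity came from metabolite formation versus DMSO control.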

[2] = biological target: T2, CYP3A4 (Homo sapiens, UniProt P08684); assay: Direct inhibition (DI) of CYP3A4 in human liver microsomes; assay type: in vitro ADME; details: human liver microsomes 0.2 mg/mL, 10 μM compound
T2 construct: A system of 100 μL human liver microsomes; from tissue; host or cells: human liver microsomes
T2 sequence (P08684 whole entry): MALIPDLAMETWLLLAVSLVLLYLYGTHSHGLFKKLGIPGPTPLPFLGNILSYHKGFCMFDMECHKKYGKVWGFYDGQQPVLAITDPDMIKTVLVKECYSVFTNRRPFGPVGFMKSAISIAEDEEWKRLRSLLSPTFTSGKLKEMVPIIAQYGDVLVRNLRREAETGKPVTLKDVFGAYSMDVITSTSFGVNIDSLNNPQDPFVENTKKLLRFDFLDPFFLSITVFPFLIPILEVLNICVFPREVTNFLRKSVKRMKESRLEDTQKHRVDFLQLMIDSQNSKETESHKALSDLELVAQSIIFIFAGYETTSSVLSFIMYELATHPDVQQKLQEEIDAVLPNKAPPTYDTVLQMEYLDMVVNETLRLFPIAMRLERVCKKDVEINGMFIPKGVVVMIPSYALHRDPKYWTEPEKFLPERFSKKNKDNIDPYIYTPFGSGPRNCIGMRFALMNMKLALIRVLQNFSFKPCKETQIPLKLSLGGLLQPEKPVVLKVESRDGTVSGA
Summary of the method: as §1

[3] = biological target: EGFR kinase (Homo sapiens, UniProt P00533); assay: EGFR/ErbB2 enzymatic experiment (HTRF kinEASE-TK), EGFR; assay type: biochemical; details: EGFR kinase 0.06 units/μL, ATP 1.65 μM; read-out: Kinase IC50 (nM) in vitro EGFR
EGFR kinase, sequence (P00533 25-1210): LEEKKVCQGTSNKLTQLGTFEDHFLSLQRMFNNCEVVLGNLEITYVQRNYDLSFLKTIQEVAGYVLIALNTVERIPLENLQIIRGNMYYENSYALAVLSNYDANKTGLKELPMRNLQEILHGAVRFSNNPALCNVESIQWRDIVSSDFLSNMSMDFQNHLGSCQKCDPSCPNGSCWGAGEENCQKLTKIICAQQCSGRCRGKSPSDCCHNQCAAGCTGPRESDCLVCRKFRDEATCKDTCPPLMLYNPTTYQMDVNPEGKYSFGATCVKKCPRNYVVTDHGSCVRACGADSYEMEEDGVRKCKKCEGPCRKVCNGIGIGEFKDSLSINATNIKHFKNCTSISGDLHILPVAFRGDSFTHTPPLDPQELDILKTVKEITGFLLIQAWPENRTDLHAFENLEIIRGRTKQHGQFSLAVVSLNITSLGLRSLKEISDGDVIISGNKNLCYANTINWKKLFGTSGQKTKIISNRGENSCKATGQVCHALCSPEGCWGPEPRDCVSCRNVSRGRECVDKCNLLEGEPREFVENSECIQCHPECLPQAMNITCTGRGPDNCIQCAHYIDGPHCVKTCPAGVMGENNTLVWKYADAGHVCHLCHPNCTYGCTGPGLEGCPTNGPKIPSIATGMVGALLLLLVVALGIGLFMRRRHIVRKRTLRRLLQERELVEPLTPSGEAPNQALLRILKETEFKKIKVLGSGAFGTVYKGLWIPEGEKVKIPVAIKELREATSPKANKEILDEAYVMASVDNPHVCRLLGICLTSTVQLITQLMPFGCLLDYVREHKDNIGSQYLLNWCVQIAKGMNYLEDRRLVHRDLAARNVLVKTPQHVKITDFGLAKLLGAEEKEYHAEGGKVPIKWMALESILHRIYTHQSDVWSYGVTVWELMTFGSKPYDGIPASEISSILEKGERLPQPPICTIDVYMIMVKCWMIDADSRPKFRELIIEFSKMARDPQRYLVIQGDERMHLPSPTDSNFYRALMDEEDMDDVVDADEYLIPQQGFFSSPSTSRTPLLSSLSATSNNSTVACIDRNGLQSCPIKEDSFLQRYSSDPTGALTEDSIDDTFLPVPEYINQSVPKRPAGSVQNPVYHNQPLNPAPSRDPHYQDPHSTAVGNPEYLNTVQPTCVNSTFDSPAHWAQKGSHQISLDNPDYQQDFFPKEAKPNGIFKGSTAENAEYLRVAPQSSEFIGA

[4] = biological target: T3, CYP1A2 (Homo sapiens, UniProt P05177); assay: Direct inhibition (DI) of CYP1A2 in human liver microsomes; assay type: in vitro ADME; details: probe Phenacetin, human liver microsomes 0.2 mg/mL, 10 μM compound, read-out: Direct inhibition (DI) 1A2 (Phenacetin)
T3 construct: A system of 100 μL human liver microsomes; from tissue; host or cells: human liver microsomes
T3 sequence (P05177 1-516): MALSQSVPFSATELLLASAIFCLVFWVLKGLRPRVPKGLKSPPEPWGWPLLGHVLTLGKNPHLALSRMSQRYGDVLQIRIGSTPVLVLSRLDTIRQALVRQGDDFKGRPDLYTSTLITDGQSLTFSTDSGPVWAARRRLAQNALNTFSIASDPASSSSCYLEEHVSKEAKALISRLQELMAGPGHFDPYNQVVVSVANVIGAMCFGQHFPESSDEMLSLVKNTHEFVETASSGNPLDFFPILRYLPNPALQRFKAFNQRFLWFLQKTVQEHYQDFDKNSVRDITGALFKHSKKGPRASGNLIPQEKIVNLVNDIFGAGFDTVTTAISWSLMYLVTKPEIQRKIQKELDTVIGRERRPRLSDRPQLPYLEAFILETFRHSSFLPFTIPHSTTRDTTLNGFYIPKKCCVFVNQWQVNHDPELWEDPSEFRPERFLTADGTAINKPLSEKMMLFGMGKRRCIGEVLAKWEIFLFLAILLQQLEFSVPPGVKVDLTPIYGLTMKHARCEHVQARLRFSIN
Summary of the method: as §1

[5] = In vivo pharmacokinetics study in beagle dogs; details: male, beagle, dog, in vivo, po, 15 mg/kg
Experimental: 6 male beagle dogs (purchased from Beijing Marshall Biotechnology Co., Ltd., certificate No. SCXK (Beijing) 2016-0001) were divided into 2 groups with 3 dogs in each group, and all of the animals were fasted for about 12 hours before administration. One group was orally administrated with 15 mg/kg of the final product of Embodiment 22 (deionized water was added, followed by sonication for 29 minutes and stirring for 4 minutes, and a clear pale yellow dosing solution with a concentration of 3 mg/mL was prepared); the other group was orally administrated with 15 mg/kg of Pyrotinib (deionized water was added, followed by sonication for 28 minutes and stirring for 5 minutes, and a clear yellow dosing solution with a concentration of 3 mg/mL was prepared). Blood samples were collected before administration and at 15, 30, 60, 90, 120, 150, 180, 240, 360, 480, 720 and 1440 minutes respectively after administration.
1.0 mL of blood was collected from each animal through jugular vein puncture at each time point and heparin sodium was used for anticoagulation. The blood samples were collected and placed in labeled centrifuge tubes, and plasma was centrifuged (centrifugation conditions: 3500 rpm, 10 minutes, 2-8° C.). To 50 μL of plasma sample was added 300 μL of acetonitrile containing internal standard (Propranolol, 25 ng/mL) to precipitate the protain. After vortexing for 10 minutes and centrifuging at 6000 g for 20 minutes, 100 μL of supernatant was taken and injected into a 96-well plate. The drug concentration in plasma was determined by UPLC/MS-MS.

[6] = probe Midazolam, read-out: Direct inhibition (DI) 3A4 (Midazolam)
[7] = probe Testosterone, read-out: Direct inhibition (DI) 3A4 (testosterone)

| Compound | inhibition at 20 min, 10 µM [1] [%] | inhibition at 20 min, 10 µM [2, 6] [%] | inhibition at 20 min, 10 µM [2, 7] [%] | IC50 [3] [nM] | inhibition at 20 min, 10 µM [4] [%] | AUC [5] [ng·h/mL] | peak oral absorption concentration [5] [ng/mL] |
| --- | --- | --- | --- | --- | --- | --- | --- |
| CCOc1cc2ncnc(Nc3ccc(Oc4ccn5ncnc5c4)c(C)c3)c2cc1NC(=O)/C(F)=C/[C@H]1CCCN1C [Final product of Embodiment 45] | 39 | 6 | 24 | 10.5 | 8 |  |  |
| CCOc1cc2ncnc(Nc3ccc(Oc4ccn5ncnc5c4)c(C)c3)c2cc1NC(=O)/C=C/[C@H]1CCCN1C [Final product of Embodiment 22, (R,E)-N-(4-((4-([1,2,4]triazolo[1,5-a]pyridin-7-yloxy)-3-methylphenyl)amino)-7-ethoxyquinazolin-6-yl)-3-(1-methylpyrrolidin-2-yl)acrylamide] | 48 | 12 | 32 | 0.8 | 14 | 5190 | 432.6 |

Reference: patent publication US11578074B2, “Nitrogenous heterocyclic compound, preparation method, intermediate, composition, and application” (SHANGHAI PHARMACEUTICALS HOLDING CO., LTD., priority 2017, dated 2023)
